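Method: 48-hour compound exposure of cells in 96-well plates, five concentrations, linear interpolation of endpoints. The concentration for 50% growth inhibition is given as GI50. At the TGI there is no net growth.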
Legend:
Assay in all cases: inhibition of tumour cell growth, NCI panel, 48 h
786-0 renal = tested on: 786-0 renal
T-47D breast = tested on: T-47D breast
IGROV1 ovarian = tested on: IGROV1 ovarian
COLO 205 colon = tested on: COLO 205 colon
U251 CNS = tested on: U251 CNS
SR leukemia = tested on: SR leukemia
SK-MEL-5 melanoma = tested on: SK-MEL-5 melanoma
CAKI-1 renal = tested on: CAKI-1 renal
CCRF-CEM leukemia = tested on: CCRF-CEM leukemia
RPMI-8226 leukemia = tested on: RPMI-8226 leukemia
SF-295 CNS = tested on: SF-295 CNS
A549 NSCLC = tested on: A549 NSCLC
A498 renal = tested on: A498 renal
BT-549 breast = tested on: BT-549 breast
MALME-3M melanoma = tested on: MALME-3M melanoma
UO-31 renal = tested on: UO-31 renal
NCI-H226 lung = tested on: NCI-H226 lung
MOLT-4 leukemia = tested on: MOLT-4 leukemia
OVCAR-4 ovarian = tested on: OVCAR-4 ovarian
RXF 393 renal = tested on: RXF 393 renal
NCI-H522 lung = tested on: NCI-H522 lung
NCI-H23 lung = tested on: NCI-H23 lung
HOP-92 NSCLC = tested on: HOP-92 NSCLC
K-562 leukemia = tested on: K-562 leukemia
KM12 colon = tested on: KM12 colon
EKVX NSCLC = tested on: EKVX NSCLC
SW-620 colon = tested on: SW-620 colon
ACHN renal = tested on: ACHN renal
TK-10 renal = tested on: TK-10 renal
NCI-H460 lung = tested on: NCI-H460 lung
OVCAR-5 ovarian = tested on: OVCAR-5 ovarian
HOP-62 NSCLC = tested on: HOP-62 NSCLC
SK-OV-3 ovarian = tested on: SK-OV-3 ovarian
OVCAR-3 ovarian = tested on: OVCAR-3 ovarian
HCT-116 colon = tested on: HCT-116 colon
UACC-257 melanoma = tested on: UACC-257 melanoma
SK-MEL-2 melanoma = tested on: SK-MEL-2 melanoma
DU-145 prostate = tested on: DU-145 prostate
MDA-MB-231 breast = tested on: MDA-MB-231 breast
NCI/ADR-RES ovarian = tested on: NCI/ADR-RES ovarian
PC-3 prostate = tested on: PC-3 prostate
SK-MEL-28 melanoma = tested on: SK-MEL-28 melanoma
HT29 colon = tested on: HT29 colon
MCF7 breast = tested on: MCF7 breast
HCC-2998 colon = tested on: HCC-2998 colon
HL-60(TB) leukemia = tested on: HL-60(TB) leukemia
MDA-MB-435 = tested on: MDA-MB-435
HCT-15 colon = tested on: HCT-15 colon
SF-539 CNS = tested on: SF-539 CNS
SF-268 CNS = tested on: SF-268 CNS
OVCAR-8 ovarian = tested on: OVCAR-8 ovarian
SN12C renal = tested on: SN12C renal
SNB-75 CNS = tested on: SNB-75 CNS
LOX IMVI melanoma = tested on: LOX IMVI melanoma
M14 melanoma = tested on: M14 melanoma
SNB-19 CNS = tested on: SNB-19 CNS
HS 578T breast = tested on: HS 578T breast
UACC-62 melanoma = tested on: UACC-62 melanoma

Cc1ccc2nc3ccccc3c(NCc3ccccc3)c2c1
GI50 (786-0 renal): 2.24 µM
TGI (786-0 renal): 8.37 µM
GI50 (T-47D breast): 7 µM
TGI (T-47D breast): 18.8 µM
GI50 (IGROV1 ovarian): 2.01 µM
TGI (IGROV1 ovarian): 9.2 µM
GI50 (COLO 205 colon): 1.47 µM
TGI (COLO 205 colon): 6.46 µM
GI50 (U251 CNS): 2.49 µM
TGI (U251 CNS): 10.2 µM
GI50 (SR leukemia): 1.31 µM
TGI (SR leukemia): 3.62 µM
GI50 (SK-MEL-5 melanoma): 4.46 µM
TGI (SK-MEL-5 melanoma): 10.5 µM
GI50 (CAKI-1 renal): 2.39 µM
TGI (CAKI-1 renal): 9.26 µM
GI50 (CCRF-CEM leukemia): 2.12 µM
TGI (CCRF-CEM leukemia): 50 µM
GI50 (RPMI-8226 leukemia): 1.56 µM
TGI (RPMI-8226 leukemia): 6.45 µM
GI50 (SF-295 CNS): 2.28 µM
TGI (SF-295 CNS): 8.58 µM
GI50 (A549 NSCLC): 2.63 µM
TGI (A549 NSCLC): 10.9 µM
GI50 (A498 renal): 1.24 µM
TGI (A498 renal): 6.9 µM
GI50 (BT-549 breast): 5.13 µM
TGI (BT-549 breast): 11.7 µM
GI50 (MALME-3M melanoma): 4.25 µM
TGI (MALME-3M melanoma): 11 µM
GI50 (UO-31 renal): 1.44 µM
TGI (UO-31 renal): 7.5 µM
GI50 (NCI-H226 lung): 3.59 µM
TGI (NCI-H226 lung): 12 µM
GI50 (MOLT-4 leukemia): 1.5 µM
TGI (MOLT-4 leukemia): 8.73 µM
GI50 (OVCAR-4 ovarian): 2.64 µM
TGI (OVCAR-4 ovarian): 9.42 µM
GI50 (RXF 393 renal): 1.42 µM
TGI (RXF 393 renal): 5.4 µM
GI50 (NCI-H522 lung): 2.72 µM
TGI (NCI-H522 lung): 12.6 µM
GI50 (NCI-H23 lung): 3.69 µM
TGI (NCI-H23 lung): 11.9 µM
GI50 (HOP-92 NSCLC): 1.34 µM
TGI (HOP-92 NSCLC): 7.56 µM
GI50 (K-562 leukemia): 1.46 µM
TGI (K-562 leukemia): 8.78 µM
GI50 (KM12 colon): 5.13 µM
TGI (KM12 colon): 12.6 µM
GI50 (EKVX NSCLC): 5.07 µM
TGI (EKVX NSCLC): 12.9 µM
GI50 (SW-620 colon): 1.76 µM
TGI (SW-620 colon): 7.85 µM
GI50 (ACHN renal): 2.39 µM
TGI (ACHN renal): 8.88 µM
GI50 (TK-10 renal): 6.43 µM
TGI (TK-10 renal): 13.9 µM
GI50 (NCI-H460 lung): 2.07 µM
TGI (NCI-H460 lung): 7.44 µM
GI50 (OVCAR-5 ovarian): 2.81 µM
TGI (OVCAR-5 ovarian): 9.92 µM
GI50 (HOP-62 NSCLC): 3.77 µM
TGI (HOP-62 NSCLC): 12.5 µM
GI50 (SK-OV-3 ovarian): 6.05 µM
TGI (SK-OV-3 ovarian): 12.9 µM
GI50 (OVCAR-3 ovarian): 3.09 µM
TGI (OVCAR-3 ovarian): 9.97 µM
GI50 (HCT-116 colon): 1.44 µM
TGI (HCT-116 colon): 6.62 µM
GI50 (UACC-257 melanoma): 7.77 µM
TGI (UACC-257 melanoma): 17.8 µM
GI50 (SK-MEL-2 melanoma): 7.79 µM
TGI (SK-MEL-2 melanoma): 16 µM
GI50 (DU-145 prostate): 2.56 µM
TGI (DU-145 prostate): 8.83 µM
GI50 (MDA-MB-231 breast): 3.33 µM
TGI (MDA-MB-231 breast): 10.5 µM
GI50 (NCI/ADR-RES ovarian): 2.46 µM
TGI (NCI/ADR-RES ovarian): 10.6 µM
GI50 (PC-3 prostate): 1.94 µM
TGI (PC-3 prostate): 9.38 µM
GI50 (SK-MEL-28 melanoma): 6.67 µM
TGI (SK-MEL-28 melanoma): 14 µM
GI50 (HT29 colon): 1.54 µM
TGI (HT29 colon): 7.43 µM
GI50 (MCF7 breast): 1.8 µM
TGI (MCF7 breast): 7.93 µM
GI50 (HCC-2998 colon): 1.86 µM
TGI (HCC-2998 colon): 6.86 µM
GI50 (HL-60(TB) leukemia): 3.49 µM
TGI (HL-60(TB) leukemia): 12.7 µM
GI50 (MDA-MB-435): 4.72 µM
TGI (MDA-MB-435): 10.8 µM
GI50 (HCT-15 colon): 2.01 µM
TGI (HCT-15 colon): 7.64 µM
GI50 (SF-539 CNS): 2.43 µM
TGI (SF-539 CNS): 9.07 µM
GI50 (SF-268 CNS): 3.83 µM
TGI (SF-268 CNS): 10.6 µM
GI50 (OVCAR-8 ovarian): 2.32 µM
TGI (OVCAR-8 ovarian): 11.1 µM
GI50 (SN12C renal): 2.41 µM
TGI (SN12C renal): 9.15 µM
GI50 (SNB-75 CNS): 5.68 µM
TGI (SNB-75 CNS): 11.9 µM
GI50 (LOX IMVI melanoma): 1.67 µM
TGI (LOX IMVI melanoma): 6.15 µM
GI50 (M14 melanoma): 5.83 µM
TGI (M14 melanoma): 13 µM
GI50 (SNB-19 CNS): 4.01 µM
TGI (SNB-19 CNS): 11 µM
GI50 (HS 578T breast): 5.14 µM
TGI (HS 578T breast): 15.4 µM
GI50 (UACC-62 melanoma): 5.9 µM
TGI (UACC-62 melanoma): 12.8 µM

Reference: PubChem BioAssay (NCI)
